Measurements as given in PMC8344022, “Small-molecule inhibitor of AF9/ENL-DOT1L/AF4/AFF4 interactions suppresses malignant gene expression and tumor growth” (Theranostics, 2021).

Tests used:
[1] = target: LSD1 (Homo sapiens, UniProt O60341); experiment: LSD1 enzyme inhibition; format: biochemical; settings: at 100 µM (Figure S3: 30 or 100 µM)
Method: (§1) Inhibition of DOT1L, LSD1 and p300 was performed using our previously reported methods, [37], [38].
(§2) LSD1, and p300 histone acetyltransferase at 30 or 100 µM, using our previous reported methods [Ref. 36, 37,
(§3) (1 picture or pasted object on this page, not shown here)

[2] = Tolerability in xenograft study (body weight, overt toxicity); format: in vivo
Method: In vivo antitumor activity of compound 1 was evaluated in a commonly used mouse model of MLL-r leukemia, [26]. 10^7 MV4;11 cells in 0.1 mL of saline and Matrigel (1:1) were injected subcutaneously into NOD-SCID mice, which can develop palpable tumors in ~2 weeks.
In vivo antitumor studies. All of the mouse studies were conducted in strict compliance with an IRB-approved protocol. NOD-SCID mice (4 to 6 weeks old, from Jackson lab) were obtained and maintained under specific pathogen-free conditions. 10^7 MV4;11 cells in medical grade saline and Matrigel (1:1, 0.1 mL) were inoculated subcutaneously and palpable tumors (2-3 mm in diameter) were developed in ~ 2 weeks. Mice were treated with compound 1 (15 mg/kg/day for 10 days) in saline (0.1 mL) administered intraperitoneally. Tumors were measured every 2 days and estimated by using the formula a×b^2/2.

[3] = test system: Molm-13 cells; experiment: Flow cytometry for CD14 and CD11b (differentiation); format: cell-based, human; settings: 5 μM for 5 days
Method: Compound 1 (5 μM for 5 days) induced significant differentiation, with more cell populations expressing CD14 and CD11b, two cell surface proteins for macrophages/monocytes (Figure 5B).
Flow cytometry. For Annexin V apoptosis assay, 10^5 cells/ml were incubated with increasing concentrations of a compound for 5 days. Apoptosis was determined using the FITC Annexin V Apoptosis Detection Kit I (BD Bioscience) using the manufacturer's protocol. For other FACS assays, cells were labeled with fluorochrome-conjugated monoclonal antibodies against human CD14 and CD11b (BD Biosciences) according to the manufacturer's recommendation. Cells were analyzed using a FACS Calibur (BD Biosciences/Applied Biosystems) and data were processed using the program Flowjo (version7.6.5).

[4] = test system: MLL-AF9-bound DOT1L and AF4 in Molm-13 cells; experiment: Co-immunoprecipitation with N-terminal MLL antibody; format: cell-based; settings: 2 days
Method: (§4) Next, we investigated how compound 1 affects these transcription cofactors in the nucleus, where they regulate gene expression. […] DOT1L inhibitor EPZ4777 [25] reduced the methylation levels of H3K79, but not other proteins (Figure 3B). […] In this regard, despite lack of activity against DOT1L, compound 1 can mimic EPZ4777 to reduce H3K79 methylation.
Co-immunoprecipitation. 10^8 Molm-13 cells were treated with a compound or DMSO for 48 hr. Co-immunoprecipitation of the nuclear protein extracts (450 µg of total protein from 10^8 molm-13 cells) was performed using a Nuclear Complex Co-IP Kit (#54001, Active Motif). Briefly, 3 µg of MLL-N Rabbit mAb (#14689, Cell signaling) and 100 µL Protein G Agarose Beads (#37478, Cell signaling) were added and incubated with the nuclear extractions overnight at 4 °C. The Agarose beads with captured antibody and relevant protein complexes were isolated, washed and subjected to Western blot for protein detection.

[5] = test system: MLL-r leukemia cells; experiment: Cytospin/Wright-Giemsa staining; format: cell-based; settings: 5 μM for 5 days
Method: Cytospin/Wrigth-Giemsa staining. The MV4;11 and Molm-13 cells were plated in 6-well plates (2.5 mL/well) at an initial concentration of 10^5 cells/mL and treated with a compound or DMSO at 37 °C in a 5% CO2 incubator for 5 days. Cytospins were performed to smear cells (100 µL, 10^6 cells/mL) on slide. After air dry, the slides were Wright's-Giemsa stained and air-dried for over 30 mins before examination.

[6] = target: p300 (Homo sapiens, UniProt Q09472); experiment: p300 histone acetyltransferase inhibition; format: biochemical; settings: at 100 µM (Figure S3: 30 or 100 µM)
Method: as §1, §2, §3

[7] = test system: nuclear protein levels in Molm-13 cells; experiment: Western blot of nuclear proteins; format: cell-based; settings: 3 days
Method: as §4
Western blot. 3x10^6 cells/well were treated with increasing concentrations of a compound for 3 days and nuclear proteins extracted with the EpiQuik Nuclear Extraction Kit (Epigentek) according to the manufacturer's protocol. Equal amounts of proteins were separated on SDS-PAGE and transferred to PVDF membranes. The blots were probed with primary antibodies, followed by anti-rabbit or anti-mouse IgG (Thermo Scientific) secondary antibodies. The primary antibodies used in this research were MBP Mouse mAb (#2396, Cell signaling), DOT1L Rabbit mAb (#77087, Cell signaling), MLL-N Rabbit mAb (#14689, Cell signaling), ENL Rabbit mAb (#14893, Cell signaling), Di-Methyl-Histone H3K79 Rabbit mAb (#5427, Cell signaling), Mono-Methyl-Histone H3K79 Rabbit mAb (#9398, Cell signaling), Histone H3 Rabbit mAb (#4499, Cell signaling), AF4 Rabbit pAb (#NBP1-28705, Novusbio) and AFF4 Rabbit pAb (#ab103586, Abcam).

[8] = target: DOT1L (Homo sapiens, UniProt Q8TEK3); experiment: DOT1L enzyme inhibition; format: biochemical; settings: at 100 µM (Figure S3: 30 or 100 µM)
Method: as §1, §2, §3

[9] = test system: THP-1 cells; experiment: Antiproliferation assay (XTT); format: cell-based; settings: Homo sapiens, 168 h, 7-day incubation, read-out: Cytotoxicity EC50
Method: (§5) Antiproliferation assay. Proliferation inhibition assays for suspension blood cancer cells were performed using an XTT assay kit (Roche). Proliferation inhibition assays for solid tumor cell lines MCF-7, MDA-MB-231, Panc1, Panc28 were performed using an MTT assay (Sigma). The antiproliferation EC50 values were determined using Prism 5 and the reported results were the mean values of at least three independent experiments. The incubation time for compound 1 was 7 days and that for EPZ4777 was 14 days.

[10] = test system: U266 cells; experiment: Antiproliferation assay (XTT); format: cell-based; settings: Homo sapiens, U-266, 168 h, 7-day incubation, read-out: Cytotoxicity EC50
Method: as §5

[11] = test system: Jurkat cells; experiment: Antiproliferation assay (XTT); format: cell-based; settings: Homo sapiens, 168 h, 7-day incubation, read-out: Cytotoxicity EC50
Method: as §5

[12] = test system: RPMI-8226 cells; experiment: Antiproliferation assay (XTT); format: cell-based; settings: Homo sapiens, 168 h, 7-day incubation, read-out: Cytotoxicity EC50
Method: as §5

[13] = test system: Molm-13 cells; experiment: Antiproliferation assay (XTT); format: cell-based
Method: as §5

[14] = test system: MV4;11 cells; experiment: Antiproliferation assay (XTT); format: cell-based; settings: Homo sapiens, 168 h, 7-day incubation, read-out: Cytotoxicity EC50
Method: as §5

[15] = test system: Kasumi-1 cells; experiment: Antiproliferation assay (XTT); format: cell-based; settings: Homo sapiens, 168 h, 7-day incubation, read-out: Cytotoxicity EC50
Method: as §5

[16] = test system: HL60 cells; experiment: Antiproliferation assay (XTT); format: cell-based; settings: Homo sapiens, HL-60, 168 h, 7-day incubation, read-out: Cytotoxicity EC50
Method: as §5

DOT1L, sequence (Q8TEK3 1-472): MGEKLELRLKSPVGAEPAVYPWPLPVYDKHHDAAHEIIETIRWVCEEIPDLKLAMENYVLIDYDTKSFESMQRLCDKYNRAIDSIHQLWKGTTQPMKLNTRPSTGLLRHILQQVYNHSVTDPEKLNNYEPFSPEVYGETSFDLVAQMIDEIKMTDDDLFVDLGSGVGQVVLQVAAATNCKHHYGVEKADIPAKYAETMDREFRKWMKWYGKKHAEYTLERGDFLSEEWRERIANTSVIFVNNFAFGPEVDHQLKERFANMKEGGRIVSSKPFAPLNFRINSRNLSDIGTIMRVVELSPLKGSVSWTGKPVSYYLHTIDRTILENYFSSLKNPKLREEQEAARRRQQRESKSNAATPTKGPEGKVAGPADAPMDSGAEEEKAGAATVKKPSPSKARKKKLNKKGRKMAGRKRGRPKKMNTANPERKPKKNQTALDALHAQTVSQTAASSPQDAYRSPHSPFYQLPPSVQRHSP
p300, sequence (Q09472 whole entry, species assumed): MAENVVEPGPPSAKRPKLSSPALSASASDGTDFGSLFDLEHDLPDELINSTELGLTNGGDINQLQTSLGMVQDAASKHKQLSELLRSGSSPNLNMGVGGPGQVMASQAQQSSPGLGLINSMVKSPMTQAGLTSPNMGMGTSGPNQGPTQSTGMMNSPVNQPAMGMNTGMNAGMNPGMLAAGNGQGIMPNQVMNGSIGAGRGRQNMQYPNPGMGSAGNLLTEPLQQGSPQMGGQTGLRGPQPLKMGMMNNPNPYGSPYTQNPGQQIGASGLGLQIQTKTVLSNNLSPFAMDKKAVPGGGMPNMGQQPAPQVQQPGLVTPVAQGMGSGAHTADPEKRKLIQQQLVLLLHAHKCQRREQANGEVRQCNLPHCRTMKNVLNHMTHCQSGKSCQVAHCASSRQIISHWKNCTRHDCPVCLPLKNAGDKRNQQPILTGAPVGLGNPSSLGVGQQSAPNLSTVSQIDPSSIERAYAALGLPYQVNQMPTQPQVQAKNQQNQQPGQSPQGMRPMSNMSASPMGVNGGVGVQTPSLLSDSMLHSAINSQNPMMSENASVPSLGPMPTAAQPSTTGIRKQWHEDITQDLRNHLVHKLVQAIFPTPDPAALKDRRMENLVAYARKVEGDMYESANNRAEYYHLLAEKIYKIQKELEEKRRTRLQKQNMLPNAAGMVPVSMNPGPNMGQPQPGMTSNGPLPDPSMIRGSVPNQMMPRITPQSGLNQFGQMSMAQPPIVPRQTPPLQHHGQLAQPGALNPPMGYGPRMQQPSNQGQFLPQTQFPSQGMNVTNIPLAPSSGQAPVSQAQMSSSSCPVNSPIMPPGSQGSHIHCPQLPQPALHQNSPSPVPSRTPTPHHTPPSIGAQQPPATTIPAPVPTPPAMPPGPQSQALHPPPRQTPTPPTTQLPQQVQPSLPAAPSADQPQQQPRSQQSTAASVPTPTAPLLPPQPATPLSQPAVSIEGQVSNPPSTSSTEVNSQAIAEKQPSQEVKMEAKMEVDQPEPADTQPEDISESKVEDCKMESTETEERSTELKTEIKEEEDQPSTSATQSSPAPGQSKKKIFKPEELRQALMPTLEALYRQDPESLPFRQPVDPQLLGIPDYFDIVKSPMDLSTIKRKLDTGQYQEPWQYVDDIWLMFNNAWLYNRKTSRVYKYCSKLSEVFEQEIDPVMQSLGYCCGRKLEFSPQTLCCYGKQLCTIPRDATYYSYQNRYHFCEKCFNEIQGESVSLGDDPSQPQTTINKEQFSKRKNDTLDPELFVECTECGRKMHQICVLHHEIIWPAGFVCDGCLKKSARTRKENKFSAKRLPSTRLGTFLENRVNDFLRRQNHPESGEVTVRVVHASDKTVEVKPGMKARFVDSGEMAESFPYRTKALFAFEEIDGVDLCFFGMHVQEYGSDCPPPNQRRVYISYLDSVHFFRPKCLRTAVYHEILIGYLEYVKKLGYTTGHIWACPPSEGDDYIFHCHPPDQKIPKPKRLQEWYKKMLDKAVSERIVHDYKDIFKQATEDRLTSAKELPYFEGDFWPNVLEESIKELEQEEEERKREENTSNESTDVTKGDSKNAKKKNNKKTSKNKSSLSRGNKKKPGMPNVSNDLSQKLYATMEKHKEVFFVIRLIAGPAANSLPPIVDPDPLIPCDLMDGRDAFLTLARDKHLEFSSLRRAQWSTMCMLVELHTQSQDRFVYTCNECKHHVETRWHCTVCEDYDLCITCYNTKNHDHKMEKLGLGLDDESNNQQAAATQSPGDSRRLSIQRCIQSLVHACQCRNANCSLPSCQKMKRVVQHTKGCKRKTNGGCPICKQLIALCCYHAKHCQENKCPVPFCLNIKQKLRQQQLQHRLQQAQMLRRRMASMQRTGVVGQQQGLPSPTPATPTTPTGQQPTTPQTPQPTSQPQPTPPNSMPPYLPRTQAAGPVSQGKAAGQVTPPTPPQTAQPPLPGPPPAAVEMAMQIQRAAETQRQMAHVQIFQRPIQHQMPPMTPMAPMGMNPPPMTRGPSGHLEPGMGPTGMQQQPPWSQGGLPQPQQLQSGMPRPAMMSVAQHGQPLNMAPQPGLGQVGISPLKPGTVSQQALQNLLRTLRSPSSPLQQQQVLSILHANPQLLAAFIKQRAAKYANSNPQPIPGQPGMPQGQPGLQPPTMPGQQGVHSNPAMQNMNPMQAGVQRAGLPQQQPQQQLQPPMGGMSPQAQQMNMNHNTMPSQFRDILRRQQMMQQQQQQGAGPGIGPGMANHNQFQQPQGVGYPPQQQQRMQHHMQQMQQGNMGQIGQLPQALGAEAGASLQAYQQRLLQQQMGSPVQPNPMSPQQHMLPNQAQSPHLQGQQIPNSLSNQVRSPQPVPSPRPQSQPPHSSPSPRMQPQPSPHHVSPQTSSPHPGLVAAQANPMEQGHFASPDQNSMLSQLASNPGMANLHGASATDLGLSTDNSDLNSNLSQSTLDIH

## CC(C)(C)c1ccc(-n2cc(C(=O)NC3CCNCC3)nc2-c2ccccc2)cc1 [Compound 1]
[1]
  Inhibition of LSD1 enzyme activity: did not significantly inhibit
[2]; 15 mg/kg for Day 1-10
  Body weight: did not cause significant weight losses
[2]; mouse model of MLL-r leukemia, 15 mg/kg
  Overt toxicity: without overt toxicity
[3]
  Differentiation: cells expressing CD14 and CD11b: significantly more cells expressing high levels of CD14 and CD11b
[4]
  MLL-AF9-bound DOT1L and AF4 (Co-IP): dose-dependent decrease of MLL-AF9-bound DOT1L and AF4
[5]
  Cell phenotype by Giemsa staining: more differentiated phenotype with reduced nucleus
[6]
  Inhibition of p300 histone acetyltransferase activity: did not significantly inhibit
[7]
  Nuclear levels of DOT1L, H3K79me1 and me2, ENL and AFF4: reduced the nuclear levels of DOT1L, H3K79me1 and me2, ENL and AFF4
  Nuclear levels of MLL-AF9: unaffected
[8]
  Inhibition of DOT1L enzyme activity: did not significantly inhibit
[9]
  EC50: 11.4 ± 0.6 µM
[10]
  EC50: 7.9 ± 0.4 µM
[11]
  EC50: 9.7 ± 0.3 µM
[12]
  EC50: 3.3 ± 0.1 µM
[13]; 10 μM, Day-2 or 3
  Inhibition of cell proliferation: did not significantly inhibit
[13]; Homo sapiens, 10 μM, Day-5, read-out: Inhibition of cell proliferation
  inhibition at 10 µM: > 90%
[13]; Homo sapiens, 168 h, 7-day incubation, read-out: Cytotoxicity EC50
  EC50: 4.9 ± 0.1 µM
[14]
  EC50: 4.7 ± 0.4 µM
[15]
  EC50: 8.9 ± 0.3 µM
[16]
  EC50: 7.3 ± 0.1 µM
